The numbers were not newly measured in patent US20230149600A1, “COLLAGEN-BASED DEVICE HAVING ANTIFUNGAL PROPERTIES” (AROA BIOSURGERY LIMITED, priority 2016, published 2023), which cites them from elsewhere.

Where only a bound is given, the exact number is not on record here.

In data set [1] the test system is fungal spores of the genera Aspergillus, Penicillium and Curvularia. The note with it: called "moderate" activity.
A further data set has as its system Candida albicans. The note with it: 5% (50 mg/mL) doxycycline solution.
The subject of a further data set is C. albicans. The note with it: 20 strains of C. albicans.
The subject of a further data set is C. albicans biofilms. The note with it: doxycycline concentrations >0.512 mg/mL; not correlated with fungicidal efficacy.

Take Doxycycline: in data set [1], the “inhibition of fungal spore germination” value is given as 50-70%. For the same substance, the “antifungal effect relative to other solutions” value in the data set on Candida albicans was “more active than a 17% EDTA solution but less active than a 2.5% NaOCl solution or a 0.2% chlorhexidine gluconate solution”. For the same substance, in the data set with C. albicans, the MIC range is 640 to 1280 µg/mL. The “reduction in metabolic activity of C. albicans biofilms” value with C. albicans biofilms is on record as at least 80%.
